From US20210163453A1, “DERIVATIVES OF PAPAVERINE THAT ARE EFFECTIVE HYPOXIC TUMOR RADIOSENSITIZERS” (Ohio State Innovation Foundation, priority 2018, published 2021) come the findings set out here.

In series [1] the test system is A549 flank xenografts. Kind of series: Tumor growth delay of A549 flank xenografts with radiation (XRT). The series is classed as in vivo, mice. As to the method:
Curves represent mean tumor volumes+−SEM. P values were calculated against XRT with two-tailed two-sample t test. *P<0.05; **P<0.01; ***P<0.001; ****P<0.0001; n.s., not significant.
Tumor Growth kinetics. 2×10^6 EO771 or 5×10^6 A549 cells were injected s.c. into the flanks of 6-week old female immunocompetent C57/B6 (EO771) or immunocompromised nu/nu (A549) mice. Caliper measurements of opposing diameter were used to calculate the tumor volumes. Upon reaching […], the tumors were visualized by cone beam CT and treatment plans calculated using SARRP software. X-rays were delivered with a single beam delivering 5 Gy using the Small Animal Research Radiation Platform (SARRP, Xstrahl). Tumor volumes were measured until the post treatment volume increased 3-fold. Error bars represent standard deviation.
For the test of the A549 flank tumors, the tumors were treated similarly to the breast cancer model, but 8 Gy was used, and a treatment group added consisting of 8 Gy radiotherapy followed 30 minutes later by 2 mg/kg papaverine. The reverse schedule would indicate if the drug must be present before the radiation so that it would alter the tumor metabolism to make it more susceptible to the radiotherapy.

The subject of series [2] is EO771 or A549 flank tumors. Description: FD-NIRS tissue oxygenation in tumor-bearing mice. Type of series: in vivo. How it is done: In vivo oxygenation measurements. All animal experiments were performed according to protocols approved by institutional IACUC review, with daily veterinarian observation. 2×10^6 EO771 or 5×10^6 A549 cells were injected s.c. into the flanks of 6-week old female immunocompromised nu/nu mice. Caliper measurements of opposing diameters were used to calculate the tumor volumes. Upon reaching […], the animals were anesthetized by inhalation of 1.5% isoflurane and tumor and thigh muscle oxygenation was measured with NIRS optical probe for 30 minutes. Once the baseline oxygenation was established, the animals were injected with either 2 mg per kg of body weight of papaverine hydrochloride or saline by tail vein. Tissue oxygenation was measured for 120 minutes. Obtained oxygenation values were normalized to time of injection and average of 5 traces per treatment averaged. Error bars represent the standard deviation.
Frequency-domain near-infrared spectroscopy (FD-NIRS) can noninvasively quantify tissue hemoglobin concentration (THb) and oxygenation (SO2) in real time. This technology uses light in the 700-800 nm wavelength because it has reasonably good tissue penetration (nominally 1-2 cm in depth). A FD-NIRS system with a novel side firing probe to measure changes in tumor oxygenation in response to pharmacological intervention was developed and used in this example. This example has generated in vivo data showing that papaverine can increase oxygenation in xenografted tumors in mice.
The FD-NIRS instrument consists of a network analyzer as the radio frequency (RF) source and phase-sensitive detection system, a 1×4 RF switch, a 4×2 optical switch, a multi-channel laser diode controller, four laser diodes (654, 779, 805 and 847 nm) installed in mounts with a bias-T, an avalanche photodiode (APD) module, and a laptop computer loaded with custom software. The surface probe consists of two side-firing source fibers (200/220/240 µm, NA=0.22) and a single side-firing detection fiber (600/660/710 µm, NA=0.22), providing two source-detector separations (SDSs) of 5 and 10 mm, respectively. The fiber tips are polished to a […] and coated with a mirror to create a light path perpendicular to the fiber. All the fiber tips are epoxied into a V-groove on a thin Delrin plate (biocompatible) so that it can be easily attached to the skin surface above a tumor. The two SDSs allow elimination of artifacts due to instrument response and the skin effects, while providing a penetration depth around 10-15 mm in typical tissue.
The FD-NIRS instrument launches intensity-modulated continuous wave lasers into the tissue and collects the amplitude-attenuated and phase-shifted diffuse reflectance from the tissue at the same frequency of the incident light, both through the side-firing probe. […]

Series [3] has as its system MP2 tumors. Description: ODD-luciferase in vivo oxygen reporter (bioluminescence imaging). Further details: species or system mice. Conditions: orthotopic MP2 CMVluc tumors. The text has this: FIGS. 14A-14E summarize results obtained using ODD-luciferase as an in vivo oxygen reporter. […] (n=3-4, P<0.05).
Use of ODD-luciferase as an in vivo oxygen reporter. We have fused the oxygen dependent degradation domain (ODD) of the HIF1a protein to the luciferase reporter protein. This fusion protein is expressed in tumor cells and is stable and reports well in hypoxia, but is destroyed by cellular machinery when cells are well oxygenated (FIG. 14A). These cells were used to grow tumors in immune-deficient mice and the animals were exposed either 95% oxygen/5% CO2 (carbogen) or medical air and the tumor bioluminescence imaged by IVIS 30 minutes post injection. Increasing oxygen breathing decreases reporter signal (FIG. 14B). These animals were then treated with either papaverine or vehicle (FIG. 14C) or SMV32 or vehicle (FIG. 14E).

Series [4] is described as follows: Cellular toxicity of PPV derivatives by trypan blue. Type of series: cell-based. As to conditions: 10 uM, 72 h. As to the method:
FIGS. 7A-7D show OCR and cellular toxicity data. […]. Bars represent mean OCR and PDE10 inhibitory activities from at least 5 (OCR) or 3 (PDE) replicates. All experiments were repeated at least twice. […] Values are mean+−SEM.
Experimental: Cell lines. All cell lines were purchased from the American Type Culture Collection (ATCC) and grown DMEM (Corning) supplemented with 10% FBS (Seradigm) and 1% Penicillin/Streptomycin (Fisher Bioreagents) at 37° C. in 5% CO2. Cells were treated with inhibitors papaverine hydrochloride (Sigma-Aldrich), rotenone (Sigma-Aldrich), piericidin A (Santa Cruz), capsaicin (Sigma-Aldrich), antimycin A (Sigma-Aldrich) and succinic acid disodium salt (Sigma-Aldrich). Cell viability was assessed by trypan blue exclusion.

“Also recorded” adds a separate entry of the source.

As for `COc1ccc(Cc2nccc3cc(OC)c(OC)cc23)cc1OC` [PPV, papaverine], the “effect of drug after XRT on growth delay” value in series [1] (2 mg/kg after 8 Gy) was “did not have any effect compared to radiation alone”. For the same molecule, the “effect of drug before XRT on growth delay” value in series [1] (2 mg/kg before 8 Gy) is “enhances tumor growth delay”. Moreover, the “increase in tumor growth delay compared to XRT alone” value in series [1] (2 mg/kg before 8 Gy) is “greater than 3 fold”; in series [1] (2 mg/kg before 8 Gy, listed as papaverine) it was 2.1-3.9 fold. Moreover, the “tumor oxygenation” value in series [2] (2 mg/kg by tail vein, within first 30-45 minutes) is “significantly increased the oxygenation; also recorded: statistically significant”. Also, the “oxygenation of normal thigh muscle” value in series [2] (2 mg/kg i.v.) is listed as “no significant change”; in series [2] (2 mg/kg i.v., listed as papaverine), “no change was detected”. Further, the “maximum tumor oxygenation above baseline” value in series [2] (2 mg/kg i.v., 30 min post injection) was 1.35-1.45 × above baseline. Moreover, in series [3], the “CMV luciferase (non-hypoxia responsive) control signal” value was “did not show any change”.

For `COc1cc2ccnc(Cc3cccc4ccccc34)c2cc1OC` [SMV-32], the “cellular toxicity in vitro” value in series [4] was “Neither of these compounds shows cellular toxicity”.
